Data on eleven compounds can be found in patent publication US7022699B2, “Cyclohexenyl phenyl diazepines vasopressin and oxytocin receptor modulators” (Wyeth, priority 2001, dated 2006).

Structures are written as SMILES. pIC50: −log10 of the molar value.

Data set [1] concerns the target T1, human vasopressin V1a receptor subtype (Homo sapiens, UniProt P37288).
T1 construct: host or cells: CHO cells, stably transfected (pZeoSV vector for the Thibonnier cells); membranes
Kind of data set: Vasopressin binding in CHO cell membranes expressing human vasopressin V1a subtype receptors ([3H]Manning ligand). Particulars: for inhibition at 0.1 µM: 100 nM, values without parentheses. From the text:
Vasopressin Binding in Chinese Hamster Ovary Cell Membranes Expressing Human Vasopressin V1a Subtype Receptors
Chinese hamster ovary cells (CHO cells) stably transfected with the human vasopressin V1a subtype receptors were either obtained from Biosignal Inc., 1744 rue Williams, Montreal, Quebec, Canada or obtained from M. Thibonnier, Case Western Reserve University School of Medicine, Cleveland, Ohio. A. Passaging and Amplification of Cells: CHO cells transfected with the human vasopressin V1a subtype receptors obtained from M. Thibonnier (pZeoSV vector) are allowed to grow to confluency (approx. >90%) in T-150 flasks under sterile conditions, in a cell culture medium of F-12 Nutrient Mixture (HAM) with L-glutamine (Gibco Cat. #11765-054) containing 15 mM HEPES (Gibco Cat. #15630-080), 1% antibiotic/antimycotic (add 5 mL 100×, Gibco Cat. #15240-062 per 500 mL F-12), 250 μg/mL Zeocin (add 1.25 mL of 100 mg/mL Invitrogen R-250-01 per 500 mL F-12) and 10% Fetal Bovine Serum (Qualified, heat inactivated, Gibco Cat. #16140-063). The medium is removed by aspiration and the cells are washed with 10 mL of Hank's Balanced Salt solution (Gibco Cat. #14175-095). The salt solution is removed by aspiration and the cells are trypsinized with 5 mL of trypsin-EDTA (0.05% trypsin, 0.53 mM EDTA-4Na, Gibco Cat. #25300-070) for 1 min. The trypsin is removed by aspiration and the cells dislodged by tapping. Cell Culture medium (eg, 30 mL for 1:30 split) is immediately added and mixed well to inactivate trypsin. 1 mL of detached cells is added to new culture flasks containing fresh cell culture medium (eg, into 25 mL per T-150 flask), and mixed gently. The cells are incubated at 37° C. in 5% CO2. The medium is changed at 3 to 4 days interval (or as appropriate). The cells grow to confluency (approx. >75%–95%) within 7–8 days. All steps are done under sterile conditions. B. Membrane Preparation: The cells are washed twice gently with Hank's Balanced Salt solution (e.g.,. use 10 mL per T-150 flask). The excess is removed and the cells are bathed for 15–30 min. in an enzyme-free Cell Dissociation Buffer (e.g. use 8 mL Hank's Based, Gibco Cat. #13150-016 per T-150 flask) until the cells are loosened. The contents are transferred to centrifuge tubes (50 mL size) kept in ice bath. All subsequent steps are done at 4° C. The tubes are centrifuged at 300×g for 15 min (1380 rpm on SORVAL, Model RT6000D, using rotor for 50 mL tubes). The supernatant is discarded and the cells suspended in homogeneizing buffer (10 mM Tris-HCl containing 0.25 M sucrose and 1 mM EDTA, pH 7.4) ensuring that the volume of the buffer is about ten times the volume of the cell pellet. The cells are pooled into a centrifuge tube (50 mL) and homogenized with Polytron at setting 6 for 10 sec. The homogenate is transferred into a Potter-Elvjehm homogenizer and homogenized with 3 strokes. The homogenate is centrifuged at 1500×g for 10 min at 4° C. (3100 rpm using SORVAL, model RT6000D, using rotor for 50 mL tubes). The pellet is discarded. The supernatant is centrifuged at 100,000×g for 60 min. at 4° C. (Beckman L8-80M ultracentrifuge; spin at 37,500 rpm with rotor type 70 Ti for 50 mL tubes; 38,000 rpm with type 80Ti for 15 mL tubes; or 35,800 rpm with rotor type 45Ti). The supernantant is discarded and the pellet suspended in 3 to 4 mL of Tris buffer (50 mM TRIS-HCl, pH 7.4). The protein content is estimated by the Bradford or Lowry method. The volume of the membrane suspension is adjusted with the membrane buffer (50 mM Tris-HCl containing 0.1% BSA and 0.1 mM PMSF) to give 3.0 mg/mL (or as appropriate) of protein. The membranes are aliquoted and stored at −70° C. C. […]

T1 sequence (P37288 whole entry): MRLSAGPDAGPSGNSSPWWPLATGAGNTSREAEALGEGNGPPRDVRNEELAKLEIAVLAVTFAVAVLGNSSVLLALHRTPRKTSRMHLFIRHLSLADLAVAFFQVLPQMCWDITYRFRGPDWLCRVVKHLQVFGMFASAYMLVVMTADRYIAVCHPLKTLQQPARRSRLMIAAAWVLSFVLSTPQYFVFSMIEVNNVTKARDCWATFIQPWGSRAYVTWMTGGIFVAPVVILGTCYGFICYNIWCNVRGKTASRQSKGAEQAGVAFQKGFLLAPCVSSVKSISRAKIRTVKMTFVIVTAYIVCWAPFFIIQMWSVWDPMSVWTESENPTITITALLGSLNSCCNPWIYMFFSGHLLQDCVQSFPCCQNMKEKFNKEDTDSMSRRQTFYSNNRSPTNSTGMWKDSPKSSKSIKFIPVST

Broadly, the pIC50 is −log10 of the IC50, conventionally taken in molar units. The melting point is the temperature, or range, at which the solid turns liquid. In the case of `CC1CCCC=C1c1ccc(C(=O)N2Cc3cccn3Cc3ccccc32)cc1` (stereo not shown) [Example 16, (10,11-Dihydro-5H-pyrrolo[2,1-c][1,4]benzodiazepin-10-yl)-[4-(6-methyl-cyclohex-1-en-1-yl)-phenyl]-methanone], the melting point lay in the range of 108 to 109 °C. Further, the pIC50 in data set [1] (values in parentheses) is 7.11.
The inhibition is the relative decrease from the control value, in per cent. `CC1(C)CCCC=C1c1ccc(C(=O)N2Cc3cccn3Cc3ccccc32)cc1` [Example 17, (10,11-Dihydro-5H-pyrrolo[2,1-c][1,4]benzodiazepin-10-yl)-[4-(6,6-dimethyl-cyclohex-1-en-1-yl)-phenyl]-methanone]: the melting point was 118 °C. The inhibition at 0.1 µM in data set [1] came to 51%.
On the same counts, the results for `O=C(c1ccc(C2=CCCc3ccccc32)cc1)N1Cc2cccn2Cc2ccccc21` [Example 18, (10,11-Dihydro-5H-pyrrolo[2,1-c][1,4]benzodiazepin-10-yl)-[4-(3,4-dihydro-naphthalen-1-yl)-phenyl]-methanone] are 166 °C and 51%.
Take `CC1=C(c2ccc(C(=O)N3Cc4cccn4Cc4ccccc43)cc2)C(C)CCC1` (stereo not shown) [Example 19, (10,11-Dihydro-5H-pyrrolo[2,1-c][1,4]benzodiazepin-10-yl)-[4-(2,6-dimethyl-cyclohex-1-en-1-yl)-phenyl]-methanone]: the melting point was 153 to 154 °C. The inhibition at 0.1 µM in data set [1] was found to be 23%.
On the same counts, the results for `CC1(C)C2CC=C(c3ccc(C(=O)N4Cc5cccn5Cc5ccccc54)cc3)C1C2` (stereo not shown) [Example 22, (10,11-Dihydro-5H-pyrrolo[2,1-c][1,4]benzodiazepin-10-yl)-[4-(6,6-dimethyl-bicyclo[3.1.1]hept-2-en-2-yl)-phenyl]-methanone] are 118 to 119 °C and 13%.
`CC1(C)C=C(c2ccc(C(=O)N3Cc4cccn4Cc4ccccc43)cc2)CC(C)(C)C1` [Example 23, (10,11-Dihydro-5H-pyrrolo[2,1-c][1,4]benzodiazepin-10-yl)-[4-(3,3,5,5-tetramethyl-cyclohex-1-en-1-yl)-phenyl]-methanone] registered a melting point of 142 to 143 °C. Also, the inhibition at 0.1 µM in data set [1] was -10%.
As for `O=C1C=C(c2ccc(C(=O)N3Cc4cccn4Cc4ccccc43)cc2)CCC1` [Example 24, 3-[4-(10,11-Dihydro-5H-pyrrolo[2,1-c][1,4]benzodiazepine-10-carbonyl)-phenyl]-cyclohex-2-en-1-one], the melting point was in the range of 205 to 207 °C. Also, in data set [1], the inhibition at 0.1 µM is 49%.
Compound `CC1=C(c2ccc(C(=O)N3Cc4cccn4Cc4ccccc43)cc2)CCCC1=O` [Example 26, 3-[4-(10,11-Dihydro-5H-pyrrolo[2,1-c][1,4]benzodiazepine-10-carbonyl)-phenyl]-2-methyl-cyclohex-2-en-1-one] gave a melting point of 95 to 97 °C. Also, in data set [1], the inhibition at 0.1 µM stood at 27%.
In the case of `Cc1cc(C(=O)N2Cc3cccn3Cc3ccccc32)ccc1C1=CCCCC1C` (stereo not shown) [Example 29, (10,11-Dihydro-5H-pyrrolo[2,1-c][1,4]benzodiazepin-10-yl)-[3-methyl-4-(6-methyl-cyclohex-1-en-1-yl)-phenyl]-methanone], the melting point fell in the range of 132 to 133 °C. In addition, the inhibition at 0.1 µM in data set [1] amounted to 27%.
In the case of `Cc1cc(C(=O)N2Cc3cccn3Cc3ccccc32)ccc1C1=CCCCC1(C)C` [Example 30, (10,11-Dihydro-5H-pyrrolo[2,1-c][1,4]benzodiazepin-10-yl)-[4-(6,6-dimethyl-cyclohex-1-en-1-yl)-3-methyl-phenyl]-methanone], the melting point was found to be 131 °C. For the same compound, in data set [1], the inhibition at 0.1 µM came out at 18%.
Compound `CC1=C(c2ccc(C(=O)N3Cc4cccn4Cc4ccccc43)cc2C)C(C)CCC1` (stereo not shown) [Example 33, (10,11-Dihydro-5H-pyrrolo[2,1-c][1,4]benzodiazepin-10-yl)-[4-(2,6-dimethyl-cyclohex-1-en-1-yl)-3-methyl-phenyl]-methanone] came in with a melting point of 133 to 135 °C. The inhibition at 0.1 µM in data set [1] was 6%.
